Results published in ChEMBL document CHEMBL3045778, “Production of bacillomycin- and macrolactin-type antibiotics by Bacillus amyloliquefaciens NJN-6 for suppressing soilborne plant pathogens” (2012).

Tests used:
[1] = system: Ralstonia solanacearum; experiment: Antibacterial activity against Ralstonia solanacearum race 1 assessed as growth inhibition at 50 uL at 28 degC for 3 days; format: functional
[2] = system: Fusarium oxysporum f. sp. cubense; experiment: Antifungal activity against soil-borne Fusarium oxysporum f. sp. cubense race 4 assessed as growth inhibition at 50 uL at 28 degC for 4 days; format: functional

C[C@@H]1CCC/C=C/C=C/[C@H](O)C[C@@H](O)C/C=C\C=C\[C@@H](OC(=O)CC(=O)O)C/C=C/C=C\C(=O)O1 [7-O-MALONYL MACROLACTIN A]
diameter of the inhibition zone (DIZ) [1]: 1 cm

C[C@@H]1CCC/C=C/C=C/[C@H](O)C[C@@H](O)C/C=C\C=C\[C@@H](OC(=O)CCC(=O)O)C/C=C/C=C\C(=O)O1 [7-O-SUCCINYL MACROLACTIN A]
diameter of the inhibition zone (DIZ) [1]: 1.3 cm

CC(C)CCCCCCCCC1CC(=O)N[C@@H](CC(=O)O)C(=O)N[C@H](Cc2ccc(O)cc2)C(=O)N[C@H](CC(N)=O)C(=O)N2CCC[C@H]2C(=O)N[C@@H](CCC(=O)O)C(=O)N[C@H](CO)C(=O)N[C@@H]([C@@H](C)O)C(=O)N1 (stereo not given in full) [BACILLOMYCIN D(C14)]
diameter of the inhibition zone (DIZ) [2]: 0.6 cm

CCC(C)CCCCCCCCC1CC(=O)N[C@@H](CC(=O)O)C(=O)N[C@H](Cc2ccc(O)cc2)C(=O)N[C@H](CC(N)=O)C(=O)N2CCC[C@H]2C(=O)N[C@@H](CCC(=O)O)C(=O)N[C@H](CO)C(=O)N[C@@H]([C@@H](C)O)C(=O)N1 (stereo not given in full) [BACILLOMYCIN D(C15)]
diameter of the inhibition zone (DIZ) [2]: 0.7 cm

C[C@@H]1CCC/C=C/C=C/[C@H](O)C[C@@H](O)C/C=C\C=C\[C@@H](O)C/C=C/C=C\C(=O)O1 [MACROLACTIN A]
diameter of the inhibition zone (DIZ) [1]: 1.2 cm
